Experimental data as given in ChEMBL document CHEMBL1201862, “PubChem BioAssay data set” (2004).
Each block holds one compound with its values, some of them ahead of it. Activity calls are given as the source filed them. Cut-off read from the data, not from the text of the source, for most assays here: actives have a measured AC50 and inactives only a lower limit.

Experiments:
[1] = A375 melanoma cell cytotoxicity, dose response, counter-screen for MITF inhibitor project, CellTiter-Glo luminescence, dry powder, set 2 (AID 624489); format: functional, cell-based; conditions: A-375;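 note: actives are compounds lowering A375 viability meaning general cytotoxicity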
[2] = A375 melanoma cell viability loss, dose response, counter-screen for MITF inhibitor project, CellTiter-Glo luminescence, dry powder, set 4 (AID 624364); format: functional, cell-based; conditions: A-375;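 note: A375 melanoma cells are MITF independent so this is a counter screen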
cells = conditions: HEK293
[3] = MC4R antagonists, dose response, counter-screen for LGR2 antagonist project, cell-based, plate reader, cherry pick (AID 743444); format: functional;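 note: transfected HEK 293 cells stimulated with alpha-MSH peptide; potency of inhibitors of the alpha-MSH evoked signal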
[4] = HEK293 cell cytotoxicity, dose response, cytotoxicity control, plate reader, cherry-picked samples (AID 743446); format: functional, cell-based
[5] = A549 cell cytotoxicity, dose response, cytotoxicity control, plate reader, cherry-pick, antagonist series (AID 743412); format: functional, cell-based
[6] = LGR2 antagonists, dose response, cell-based, HEK293, CRE-luciferase reporter, cherry pick, set 2 (AID 743343); format: functional;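 note: transfected cells were stimulated with diluted bursicon conditioned medium after compound addition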
[7] = HepG2 cell cytotoxicity, dose response, cytotoxicity control, plate reader, cherry-pick, antagonist series (AID 743416); format: functional, cell-based
[8] = CEM21 cell cytotoxicity, dose response, cytotoxicity control, plate reader, dry powder (AID 687026); format: functional, cell-based
[9] = inhibitors of HIV Env-driven cell fusion, dose response, cherry-pick (AID 652057); format: functional, cell-based
[10] = HIV Env cell-cell fusion inhibitors, dose response, HIV entry, plate reader, dry powder (AID 687023); format: functional, cell-based
[11] = ZM109 Env clade C HIV-1 fusion inhibitors, dose response, HeLa effector, CEM target cells, luciferase, cherry-pick (AID 652058); format: functional, cell-based
[12] = molecular target: Metabotropic glutamate receptor 3 (Rattus norvegicus, UniProt P31422); assay: mGlu3 negative allosteric modulator potency, dose response, HEK/GIRK cells, thallium flux, rat (AID 651839); format: functional
Chain of Metabotropic glutamate receptor 3 (P31422 whole entry): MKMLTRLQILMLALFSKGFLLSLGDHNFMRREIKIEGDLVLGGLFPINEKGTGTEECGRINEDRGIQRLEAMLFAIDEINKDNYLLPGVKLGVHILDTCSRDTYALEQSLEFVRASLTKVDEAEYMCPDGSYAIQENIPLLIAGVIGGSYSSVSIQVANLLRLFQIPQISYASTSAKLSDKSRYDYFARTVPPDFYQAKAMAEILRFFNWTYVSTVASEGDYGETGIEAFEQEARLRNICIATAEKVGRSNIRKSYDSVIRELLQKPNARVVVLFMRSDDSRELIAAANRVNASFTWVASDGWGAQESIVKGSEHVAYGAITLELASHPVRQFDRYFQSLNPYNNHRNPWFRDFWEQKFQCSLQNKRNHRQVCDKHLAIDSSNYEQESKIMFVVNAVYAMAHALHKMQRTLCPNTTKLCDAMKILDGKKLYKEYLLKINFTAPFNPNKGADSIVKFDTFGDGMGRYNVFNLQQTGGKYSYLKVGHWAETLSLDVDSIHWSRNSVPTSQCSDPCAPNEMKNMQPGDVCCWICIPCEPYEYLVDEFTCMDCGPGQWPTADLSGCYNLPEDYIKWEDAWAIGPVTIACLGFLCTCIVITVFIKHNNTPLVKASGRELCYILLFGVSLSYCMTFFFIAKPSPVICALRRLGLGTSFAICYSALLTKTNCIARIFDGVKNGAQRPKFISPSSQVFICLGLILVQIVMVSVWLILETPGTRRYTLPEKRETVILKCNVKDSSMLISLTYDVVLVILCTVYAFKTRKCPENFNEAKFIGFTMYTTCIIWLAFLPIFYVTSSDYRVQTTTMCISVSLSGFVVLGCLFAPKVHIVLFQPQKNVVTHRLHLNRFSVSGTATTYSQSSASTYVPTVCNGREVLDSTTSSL

[13] = molecular target: NAD-dependent protein deacylase sirtuin-5, mitochondrial (Homo sapiens, UniProt Q9NXA8); assay: SIRT5 deacylase inhibitors, dose response, biochemical, fluorescence imaging, cherry-pick, set 6 (AID 720597)
Chain of NAD-dependent protein deacylase sirtuin-5, mitochondrial (Q9NXA8 whole entry): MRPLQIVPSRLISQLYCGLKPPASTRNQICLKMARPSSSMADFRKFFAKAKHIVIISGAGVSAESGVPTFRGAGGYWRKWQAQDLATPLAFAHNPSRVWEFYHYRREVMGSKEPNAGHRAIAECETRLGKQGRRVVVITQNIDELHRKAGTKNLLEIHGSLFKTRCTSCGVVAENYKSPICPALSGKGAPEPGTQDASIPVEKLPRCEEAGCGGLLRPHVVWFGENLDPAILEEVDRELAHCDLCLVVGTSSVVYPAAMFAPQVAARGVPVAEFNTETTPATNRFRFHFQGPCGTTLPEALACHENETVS

[14] = molecular target: 1-phosphatidylinositol 4,5-bisphosphate phosphodiesterase gamma-1 (Homo sapiens, UniProt P19174); assay: Counterscreen for inhibitors of phospholipase C isozymes (PLC-B3): Fluorescence-based biochemical high throughput dose response assay to identify inhibitors of phospholipase C isozymes (PLC-gamma1).
Chain of 1-phosphatidylinositol 4,5-bisphosphate phosphodiesterase gamma-1 (P19174 whole entry): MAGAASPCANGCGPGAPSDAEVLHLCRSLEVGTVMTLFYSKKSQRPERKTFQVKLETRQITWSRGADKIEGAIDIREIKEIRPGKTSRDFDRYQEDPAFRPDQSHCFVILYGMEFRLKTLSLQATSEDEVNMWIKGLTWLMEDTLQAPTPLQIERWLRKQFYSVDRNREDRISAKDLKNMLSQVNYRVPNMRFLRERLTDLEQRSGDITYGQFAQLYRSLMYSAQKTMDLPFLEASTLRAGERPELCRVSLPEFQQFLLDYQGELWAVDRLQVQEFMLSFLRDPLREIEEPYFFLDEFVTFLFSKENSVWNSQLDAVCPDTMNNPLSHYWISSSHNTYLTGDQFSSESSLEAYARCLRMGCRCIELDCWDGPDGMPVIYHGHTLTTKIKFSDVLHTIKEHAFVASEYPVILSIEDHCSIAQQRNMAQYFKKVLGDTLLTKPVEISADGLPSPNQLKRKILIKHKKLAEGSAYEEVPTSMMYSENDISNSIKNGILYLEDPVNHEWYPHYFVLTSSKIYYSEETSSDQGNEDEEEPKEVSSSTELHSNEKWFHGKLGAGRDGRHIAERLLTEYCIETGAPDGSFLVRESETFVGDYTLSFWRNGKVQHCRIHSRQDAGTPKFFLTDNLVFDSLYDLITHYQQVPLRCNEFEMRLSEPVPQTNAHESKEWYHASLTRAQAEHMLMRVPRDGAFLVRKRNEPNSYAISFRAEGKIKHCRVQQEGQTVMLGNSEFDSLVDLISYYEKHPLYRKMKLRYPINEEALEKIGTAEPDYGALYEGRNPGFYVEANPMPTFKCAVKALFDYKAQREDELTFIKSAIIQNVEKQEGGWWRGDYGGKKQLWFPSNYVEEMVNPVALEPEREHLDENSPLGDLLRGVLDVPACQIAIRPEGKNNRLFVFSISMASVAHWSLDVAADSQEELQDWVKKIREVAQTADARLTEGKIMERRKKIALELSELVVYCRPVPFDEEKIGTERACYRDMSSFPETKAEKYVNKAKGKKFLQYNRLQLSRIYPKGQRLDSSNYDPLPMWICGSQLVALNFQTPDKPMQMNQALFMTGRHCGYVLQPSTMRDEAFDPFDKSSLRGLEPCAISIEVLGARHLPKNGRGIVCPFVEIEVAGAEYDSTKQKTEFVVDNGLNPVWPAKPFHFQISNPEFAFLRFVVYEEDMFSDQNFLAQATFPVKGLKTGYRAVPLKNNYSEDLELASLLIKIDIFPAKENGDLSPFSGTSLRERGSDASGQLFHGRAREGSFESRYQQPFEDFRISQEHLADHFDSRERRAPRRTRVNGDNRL

[15] = molecular target: 1-phosphatidylinositol 4,5-bisphosphate phosphodiesterase beta-3 (Homo sapiens, UniProt Q01970); assay: Fluorescence-based biochemical high throughput dose response assay to identify inhibitors of phospholipase C isozymes (PLC-B3).
Chain of 1-phosphatidylinositol 4,5-bisphosphate phosphodiesterase beta-3 (Q01970 whole entry): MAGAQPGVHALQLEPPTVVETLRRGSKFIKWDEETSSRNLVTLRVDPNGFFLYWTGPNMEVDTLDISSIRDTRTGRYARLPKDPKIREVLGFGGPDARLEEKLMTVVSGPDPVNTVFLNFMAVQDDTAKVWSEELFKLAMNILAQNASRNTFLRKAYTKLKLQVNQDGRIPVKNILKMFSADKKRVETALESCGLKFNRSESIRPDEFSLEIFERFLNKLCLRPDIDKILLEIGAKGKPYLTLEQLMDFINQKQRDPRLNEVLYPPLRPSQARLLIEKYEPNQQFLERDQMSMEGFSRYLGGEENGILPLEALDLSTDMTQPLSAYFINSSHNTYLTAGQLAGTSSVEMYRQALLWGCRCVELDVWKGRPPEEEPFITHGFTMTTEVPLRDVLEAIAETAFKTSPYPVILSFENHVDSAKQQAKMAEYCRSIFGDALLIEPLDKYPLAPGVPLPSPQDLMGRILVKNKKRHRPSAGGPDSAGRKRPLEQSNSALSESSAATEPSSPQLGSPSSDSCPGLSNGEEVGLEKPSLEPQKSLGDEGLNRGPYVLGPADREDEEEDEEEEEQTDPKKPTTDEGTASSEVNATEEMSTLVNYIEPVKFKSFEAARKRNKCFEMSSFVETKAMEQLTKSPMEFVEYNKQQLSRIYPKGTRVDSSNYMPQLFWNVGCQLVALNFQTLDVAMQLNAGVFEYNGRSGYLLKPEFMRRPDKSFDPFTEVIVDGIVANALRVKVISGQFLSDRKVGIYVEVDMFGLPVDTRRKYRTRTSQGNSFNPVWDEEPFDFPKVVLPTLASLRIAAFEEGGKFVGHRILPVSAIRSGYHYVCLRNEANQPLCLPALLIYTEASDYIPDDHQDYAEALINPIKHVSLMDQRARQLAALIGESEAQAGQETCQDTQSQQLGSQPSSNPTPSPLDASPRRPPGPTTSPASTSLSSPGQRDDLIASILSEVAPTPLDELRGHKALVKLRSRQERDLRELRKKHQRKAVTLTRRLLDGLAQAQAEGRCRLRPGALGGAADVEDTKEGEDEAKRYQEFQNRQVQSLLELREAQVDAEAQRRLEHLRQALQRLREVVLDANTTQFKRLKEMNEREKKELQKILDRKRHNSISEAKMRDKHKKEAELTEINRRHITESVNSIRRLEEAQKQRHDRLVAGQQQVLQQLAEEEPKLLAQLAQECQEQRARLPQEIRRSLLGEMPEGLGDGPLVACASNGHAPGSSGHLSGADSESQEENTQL

Structure (SMILES): COc1ccc(C2=C(NC(=O)c3ccc(Cl)cc3)C(=O)c3ccccc3C2=O)cc1
AC50 [1]: 18.2 µM (active)
AC50 [2]: 35.3 µM (active)

Structure (SMILES): CCN1C(=O)c2cccc3c(S(=O)(=O)N(C)C)ccc1c23
AC50 (cells): > 52 µM (inactive)

Structure (SMILES): CCCCOc1ccc(-c2cnc3ccccc3n2)cc1
AC50 [3]: 6.65 µM (active)
AC50 [4]: > 52 µM (inactive)
AC50 [5]: > 52 µM (inactive)
AC50 [6]: 4.56 µM (active)
AC50 [7]: > 52 µM (inactive)

Structure (SMILES): C[C@H]1CN([C@@H](C)CO)C(=O)c2ccccc2-c2ccccc2CO[C@H]1CN(C)S(=O)(=O)c1ccccc1C#N
AC50 [8]: > 70 µM (inactive)
AC50 [9]: 0.838 µM (active)
AC50 [10]: 47 µM (active)
AC50 [11]: 3.49 µM (active)

IC50 [12]: 1.08 µM (inactive)
Structure (SMILES): O=C(c1ccc2cc(-c3cccc(OCc4ccccc4)c3)ccc2c1)N1CCCC(CO)C1 (stereo unspecified)

AC50 [13]: 22.8 µM (active)
Structure (SMILES): C[C@H]1CN([C@@H](C)CO)C(=O)c2cccc(NC(=O)NC3CCCCC3)c2O[C@@H]1CN(C)Cc1ccc(C(=O)O)cc1

IC50 [14]: > 123 µM (inactive)
IC50 [15]: > 123 µM (inactive)
Structure (SMILES): Cc1ccc(OCCn2c(CCNC(=O)C3CCCCCC3)nc3ccccc32)cc1
